{"source": "patent US12551479B2", "about": "“Acyl-protein thioesterase inhibitor for the treatment and/or prevention of Huntington's disease” (UNIVERSITÉ GRENOBLE ALPES, priority 2019, dated 2026)", "key": {"[1]": {"tested_on": "ERK phosphorylation", "test": "Postsynaptic signaling: phosphoERK immunopositive striatal neurons after glycine/strychnine stimulation", "type": "cell-based, mouse", "conditions": "Hdh^CAG/+ neurons, 1 μM daily; glycine/strychnine 15 minutes", "quoted_text": "They used ERK phosphorylation as the readout of the postsynaptic signaling. […] The inventors stimulated cortical neurons for 15 minutes with glycine/strychnine and quantified the percentage of striatal neurons immunopositive for phosphoERK (FIG. 3J)."}, "[2]": {"tested_on": "StHdh^Q111/Q111 cells", "test": "RUSH system: GPI-SBP-mCherry trafficking from endoplasmic reticulum to Golgi and plasma membrane", "type": "cell-based, mouse", "conditions": "StHdh^Q111/Q111 cells treated 1 hour with 10 μM", "description": "The RUSH plasmid (Boncompain et al., 2012) is a bicistronic plasmid (SEQ ID NO: 2) allowing the expression of two parts of the system: the reticulum-specific anchor (KDEL-streptavidin), and the reporter part (GPI-SBP-mCh). The addition of biotin in the extracellular medium (40 μM) induces the unhooking of the reporter part of the anchor, thus allowing to follow the intracellular trafficking in a synchronized way within a cell population from the endoplasmic reticulum.\nFor striatal StHdh cells, acute treatment was performed at 10 μM for 1 hour before and during the acquisition time. For neurons within the microchambers, treatments were started at DIV2 until DIV12 every day at 1 μM in each compartment of the microfluidic device.\nThe inventors used the Retention Using Selective Hooks (RUSH) system to study intracellular dynamics from the ER to the plasma membrane in Huntington's disease condition (FIG. 1A). RUSH allows tracking the synchronous release of a reporter molecule from specific intracellular compartments. In the present experiment, the inventors followed the release of glycosylphosphatidylinositol (GPI)-anchored fluorescence protein mCherry, and fused to streptavidin-binding peptide (SBP) that was retained into the ER compartment by the interaction with a “hook” protein composed of the KDEL motif fused to streptavidin. In the absence of biotin, the GPI-SBP-mCherry localizes at the ER (FIG. 1A). Addition of biotin to the cells expressing GPI-SBP-mCherry and KDEL-streptavidin causes a synchronous release of the GPI-SBP-mCherry reporter from the hook which then migrates to the Golgi apparatus and later to the plasma membrane.\nTo study these dynamics in the context of Huntington's disease, the inventors transfected the GPI-SBP-mCherry-KDEL-streptavidin construct as shown in SEQ ID NO:2 into immortalized striatal cells from Hdh^Q111/Q111 and Hdh^Q7/Q7 mice, referred to as StHdh^Q111/Q111 and StHdh^Q7/Q7 cells respectively. They then monitored GPI-SBP-mCherry trafficking by real-time imaging for 90 minutes. To assess intracellular trafficking dynamics, they quantified the kinetics of appearance and disappearance of mCherry fluorescence in the Golgi apparatus over time (FIGS. 1B and C). Shortly after biotin addition, GPI leaves the ER and moves to the Golgi apparatus. The inventors quantified fluorescence at the Golgi and observed that in StHdh^Q7/Q7 cells, the peak fluorescence was at 16.6 minutes, whereas it was delayed to 23.6 minutes in StHdh^Q111/Q111 cells (FIG. 1B). Their observations indicate a reduced trafficking of GPI from the ER to the Golgi apparatus as well as prolonged retention of GPI in the Golgi as evidenced by a longer period of GPI fluorescence in the Golgi apparatus."}, "[3]": {"tested_on": "melanoma cells", "conditions": "studies of Vujic et al., 2015; cited from earlier work"}, "[4]": {"tested_on": "mouse cortical neuronal cells", "test": "MTT toxicity assay", "type": "cell-based", "description": "Toxicity was assessed using the tetrazolium salt MTT assay. The cortical culture was treated every day as previously described. After treatment, a solution of MTT (Life M6494) was added to the culture medium at 1.2 mM and incubated for 3 hours. The reaction was terminated by adding the solvent solution (4 mM HCl, 0.1% NP40 in isopropanol). The absorbance value was measured at 595 and 690 nm."}}, "data": [{"molecule": "O=C(CN1CCN(C(=O)c2ccco2)CC1)Nc1cc(C(F)(F)F)ccc1Cl", "note": "[ML-348]", "values": [{"measurement": "percentage of immunopositive phosphoERK cells in the postsynaptic space", "setting": "[1]", "result": "restore postsynaptic signaling to values encountered in wild-type neurons"}, {"measurement": "time after biotin addition for the appearance of the fluorescence peak in the Golgi", "setting": "[2]; without treatment 23.2-23.3 min, StHdh^Q7/Q7 16.6 min", "result": 18.9, "unit": "min"}, {"measurement": "time for fluorescence to leave the Golgi apparatus (retention time in the Golgi)", "setting": "[2]; without treatment 24-25.4 min, wild-type cells 15.1 min", "result": 15.1, "unit": "min"}, {"measurement": "effect on melanoma cells", "setting": "[3]", "result": "no biologically significant effect"}, {"measurement": "cell viability (MTT)", "setting": "[4]; 100 nM, 1 μM or 10 μM", "result": "no effect"}, {"measurement": "toxicity (MTT)", "setting": "[4]; 1 μM, for 12 days", "result": "no toxicity"}, {"measurement": "toxicity (MTT)", "setting": "[4]; 100 μM, over 48 hours", "result": "toxic"}, {"measurement": "toxicity (MTT)", "setting": "[4]; wild-type cortical cultures, 1 μM for 10 days", "result": "no toxicity"}]}]}
